Literature values, collected in patent US6403554B2, “Polyunsaturated fatty acid derivatives and their use” (Ardenia Investments Ltd., priority 1998, dated 2002).

What was measured:
[1] = test system: human AFP (alpha-fetoprotein); details: International Application PCT/EP99/04201; cited from earlier work
AFP = target: T1, AFP (Homo sapiens, UniProt P02771); details: International Application PCT/EP99/04201; cited from earlier work
T1 construct: from tissue; host or cells: human cord blood
T1 sequence (P02771 19-609): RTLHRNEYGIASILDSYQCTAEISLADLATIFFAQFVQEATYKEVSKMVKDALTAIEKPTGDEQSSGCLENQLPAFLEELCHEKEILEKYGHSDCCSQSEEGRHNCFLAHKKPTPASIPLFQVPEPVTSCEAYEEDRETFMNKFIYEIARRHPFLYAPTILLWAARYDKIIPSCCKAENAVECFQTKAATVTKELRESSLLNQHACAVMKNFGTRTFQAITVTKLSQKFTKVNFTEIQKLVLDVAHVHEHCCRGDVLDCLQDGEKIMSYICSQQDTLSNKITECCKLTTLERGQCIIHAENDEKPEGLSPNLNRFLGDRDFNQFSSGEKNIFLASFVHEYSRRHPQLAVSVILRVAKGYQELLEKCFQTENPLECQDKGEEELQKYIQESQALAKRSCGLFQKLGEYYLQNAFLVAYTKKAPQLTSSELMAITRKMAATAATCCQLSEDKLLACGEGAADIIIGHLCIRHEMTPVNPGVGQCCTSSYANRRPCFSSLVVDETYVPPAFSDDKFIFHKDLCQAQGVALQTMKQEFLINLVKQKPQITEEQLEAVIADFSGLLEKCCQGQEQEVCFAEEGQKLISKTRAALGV

rats = details: injected into rats; cited from earlier work

In the case of `CCCCC/C=C\C/C=C\C/C=C\C/C=C\CCCC(=O)NCCOP(=O)(O)O` [Compound 5, N-(cis-5,8,11,14-eicosatetraenoyl)-O-phospho-2-aminoethanol], the “molecules of N-AAP in micelle linked to AFP” value [1] is given as “up to 300 molecules”.
For `CCCCC/C=C\C/C=C\C/C=C\C/C=C\CCCC(=O)NCCOP(=O)(O)O` [Compound 5, N-arachidonoyl-o-phospho-2-aminoethanol], the “Molecules of compound in the micelle reversibly linked to AFP” value (AFP) is listed as “up to 300 molecules”.
In the case of `CCCCCCCC/C=C\CCCCCCCC(N)=O` [cis-9,10-octadecenoamide], the physiological sleep (rats) is listed as “induced physiological sleep”.
